Data: patent publication US9012460B2, “1-(2-phenoxymethylphenyl)piperazine compounds” (Theravance Biopharma R&D IP, LLC, priority 2010, dated 2015)

Legend:
[1] = molecular target: T1, hSERT (Homo sapiens, UniProt P31645); assay: hSERT neurotransmitter uptake assay (Assay 2) or fluorescence-based assay of Tsuruda et al.; assay type: cell-based; conditions: serotonin reuptake inhibition; asterisk = fluorescence-based assay (Tsuruda et al. 2010); read-out: SERT pIC50 (converted)
T1 construct: expressed in transfected cells; host or cells: HEK-293
Experimental: (§1) Neurotransmitter uptake assays were used to measure inhibition of ^3H-serotonin (^3H-5-HT), ^3H-norepinephrine (^3H-NE), and ^3H-dopamine (^3H-DA) uptake into cells expressing the respective transporter (hSERT, hNET or hDAT) in order to determine the pIC50 values of test compounds at the transporters.
(§2) HEK-293 derived cell lines stably-transfected with hSERT, hNET, or hDAT, respectively, were grown in DMEM medium supplemented with 10% dialyzed FBS (for hSERT) or FBS (for hNET and hDAT), 100 μg/ml penicillin, 100 μg/ml streptomycin, 2 mM L-glutamine and 250 μg/ml of the aminoglycoside antibiotic G418 (for hSERT and hNET) or 800 ug/ml (for hDAT), in a 5% CO2 humidified incubator at 37° C. When cultures reached 80% confluence, the cells were washed thoroughly in PBS (without Ca^2+and Mg^2+) and lifted with 5 mM EDTA in PBS. […]
(§3) Following a 10 minute incubation, at 37° C., with radioligand, the cells were harvested by rapid filtration over a 96-well UniFilter GF/B plate, pretreated with 1% BSA, and washed 6 times with 650 μl wash buffer (ice cold PBS). Plates were dried overnight at 37° C., ˜45 μl of MicroScint™-20 (Perkin Elmer) added and incorporated radioactivity quantitated via liquid scintillation spectroscopy. Inhibition curves were analyzed using GraphPad Prism Software package (GraphPad Software, Inc., San Diego, Calif.). […]

[2] = molecular target: T1, hSERT; assay: hSERT membrane radioligand binding assay (Assay 1); conditions: 3H-citalopram, membranes from HEK-293 cells expressing hSERT; read-out: SERT pKi (converted)
Experimental: (§4) Membrane radioligand binding assays were used to measure inhibition of labeled ligand (^3H-citalopram or ^3H-nisoxetine or ^3H-WIN35428) binding to membranes prepared from cells expressing the respective human recombinant transporter (hSERT or hNET or hDAT) in order to determine the pKi values of test compounds at the transporters.
(§5) Recombinant human embryonic kidney (HEK-293) derived cell lines stably transfected with hSERT or hNET, respectively, were grown in DMEM medium supplemented with 10% dialyzed FBS (for hSERT) or FBS (for hNET), 100 μg/ml penicillin, 100 μg/ml streptomycin, 2 mM L-glutamine and 250 μg/ml of the aminoglycoside antibiotic G418, in a 5% CO2 humidified incubator at 37° C. When cultures reached 80% confluence, the cells were washed thoroughly in PBS (without Ca^2+ and Mg^2+) and lifted with 5 mM EDTA in PBS. Cells were pelleted by centrifugation, resuspended in lysis buffer (10 mM Tris-HCl, pH7.5 containing 1 mM EDTA), homogenized, pelleted by centrifugation, then resuspended in 50 mM Tris-HCl, pH 7.5 and 10% sucrose at 4° C. Protein concentration of the membrane suspension was determined using a Bio-Rad Bradford Protein Assay kit. Membranes were snap frozen and stored at −80° C. Chinese hamster ovary membranes expressing hDAT (CHO-DAT) were purchased from PerkinElmer and stored at −80° C.
(§6) Binding assays were performed in a 96-well assay plate in a total volume of 200 μL assay buffer (50 mM Tris-HCl, 120 mM NaCl, 5 mM KCl, pH 7.4) with 0.5, 1, and 3 μg membrane protein, for SERT, NET and DAT, respectively.
(§7) Stock solutions (10 mM in DMSO) of test compound were prepared and serial dilutions made using Dilution Buffer (50 mM Tris-HCl, 120 mM NaCl, 5 mM KCl, pH 7.4, 0.1% BSA, 400 μM ascorbic acid).
(§8) Following a 60 minute incubation at 22° C. (or a period sufficient to reach equilibrium), the membranes were harvested by rapid filtration over a 96-well UniFilter GF/B plate, pretreated with 0.3% polyethyleneimine, and washed 6 times with 300 μl wash buffer (50 mM Tris-HCl, 0.9% NaCl, pH 7.5 at 4° C.). Plates were dried overnight at room temperature, ˜45 μl of MicroScint™-20 (Perkin Elmer) added and bound radioactivity quantitated via liquid scintillation spectroscopy. Inhibition curves and saturation isotherms were analyzed using GraphPad Prism Software package (GraphPad Software, Inc., San Diego, Calif.). IC50 values were generated from concentration response curves using the Sigmoidal Dose Response (variable slope) algorithm in Prism GraphPad. Kd and Bmax values for the radioligand were generated from saturation isotherms using the Saturation Binding Global Fit algorithm in Prism GraphPad. pKi (negative decadic logarithm of Ki) values for test compounds were calculated from the best-fit IC50 values, and the Kd value of the radioligand, using the Cheng-Prusoff equation (Cheng & Prusoff (1973) Biochem. Pharmacol. 22(23):3099-3108): Ki=IC50/(1+[L]/Kd), where [L]=concentration radioligand.

[3] = molecular target: T2, hNET (Homo sapiens, UniProt P23975); assay: hNET membrane radioligand binding assay (Assay 1); conditions: 3H-nisoxetine, membranes from HEK-293 cells expressing hNET; read-out: NET pKi (converted)
T2 construct: expressed in transfected cells; host or cells: HEK-293
Experimental: as §4, §5, §6, §7, §8

[4] = molecular target: T2, hNET; assay: hNET neurotransmitter uptake assay (Assay 2) or fluorescence-based assay of Tsuruda et al.; assay type: cell-based; conditions: norepinephrine reuptake inhibition; asterisk = fluorescence-based assay (Tsuruda et al. 2010); read-out: NET pIC50 (converted)
Experimental: as §1, §2, §3

T1 sequence (P31645 whole entry): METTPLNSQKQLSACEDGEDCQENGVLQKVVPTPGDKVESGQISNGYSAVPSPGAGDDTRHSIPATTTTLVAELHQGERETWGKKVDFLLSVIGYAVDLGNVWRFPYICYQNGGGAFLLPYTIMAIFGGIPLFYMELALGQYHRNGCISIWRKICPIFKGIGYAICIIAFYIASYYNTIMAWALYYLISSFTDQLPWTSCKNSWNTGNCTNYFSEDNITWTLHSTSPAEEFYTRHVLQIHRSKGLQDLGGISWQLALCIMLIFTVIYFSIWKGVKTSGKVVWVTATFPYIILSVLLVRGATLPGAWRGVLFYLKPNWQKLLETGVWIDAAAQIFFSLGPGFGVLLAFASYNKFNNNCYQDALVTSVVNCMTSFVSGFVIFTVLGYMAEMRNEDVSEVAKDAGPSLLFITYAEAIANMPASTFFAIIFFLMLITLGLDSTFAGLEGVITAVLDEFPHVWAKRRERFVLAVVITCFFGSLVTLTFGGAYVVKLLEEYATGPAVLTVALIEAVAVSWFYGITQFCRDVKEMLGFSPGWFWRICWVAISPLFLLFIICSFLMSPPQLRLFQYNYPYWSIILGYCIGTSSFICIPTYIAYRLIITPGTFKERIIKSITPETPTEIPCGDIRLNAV
T2 sequence (P23975 whole entry): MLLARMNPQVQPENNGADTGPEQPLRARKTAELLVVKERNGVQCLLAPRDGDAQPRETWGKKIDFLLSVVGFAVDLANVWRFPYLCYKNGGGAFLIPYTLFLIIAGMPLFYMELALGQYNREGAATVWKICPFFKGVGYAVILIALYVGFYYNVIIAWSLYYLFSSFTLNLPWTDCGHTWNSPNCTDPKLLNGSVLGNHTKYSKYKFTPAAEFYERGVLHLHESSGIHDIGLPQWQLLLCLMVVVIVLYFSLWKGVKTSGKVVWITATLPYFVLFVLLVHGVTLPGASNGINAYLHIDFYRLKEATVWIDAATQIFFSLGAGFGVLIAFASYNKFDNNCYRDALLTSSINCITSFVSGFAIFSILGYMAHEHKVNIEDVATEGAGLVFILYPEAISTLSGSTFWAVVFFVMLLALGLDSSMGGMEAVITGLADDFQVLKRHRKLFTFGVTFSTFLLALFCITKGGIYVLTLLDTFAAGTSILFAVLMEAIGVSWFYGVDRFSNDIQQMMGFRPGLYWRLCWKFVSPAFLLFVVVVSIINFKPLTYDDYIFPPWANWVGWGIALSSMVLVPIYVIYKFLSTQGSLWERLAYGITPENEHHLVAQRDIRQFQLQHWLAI

Clc1cccc(OCc2ccccc2N2CCNCC2)c1 [Example 2-12]
≤ 100 nM: IC50 [1] | Ki [2] | Ki [3] | IC50 [4]
